# “Also recorded” adds a separate entry of the source. Bridge positions count the residues as written; N and C are the ends. Square brackets hold non-standard residues; d marks the D form. Peptide text beside a SMILES is read from it.
# What was measured:
# Dr-sstr2a = assay: PRESTO-Tango β-arrestin recruitment assay, Dr-sstr2a; format: cell-based, zebrafish (Danio rerio); settings: HTLA cells, listed as Consomatin pG1
# From the text: (§1) 3xHA-tagged human SSTR2 construct was obtained from cDNA.org (cDNA resource center, Bloomsburg PA, US). […] Kirill Martemyanov (University of Florida, US). Tango constructs for human SSTR1-5 were kind gifts from Prof. Bryan Roth (University of North Carolina, Chapel Hill, US) (Addgene kit # 1000000068). Tango constructs for fish Dr-sstr2a (sequence accession number: XP_005170178.1) and Dr-sstr2b (sequence accession number: XP_017210358.1) were custom-synthesized by Twist Biosciences using the Tango construct template as described in Kroeze et al., 2015[28]. 3xHA-tagged Dr-sstr2a and 3xHA tagged Dr-sstr2b constructs were inserted into pcDNA3.1 backbone. All DNA constructs were sequenced and confirmed prior to use.
# (§2) The assay was done as described in ref. [12].
# Dr-sstr2b = assay: PRESTO-Tango β-arrestin recruitment assay, Dr-sstr2b; format: cell-based, zebrafish (Danio rerio); settings: for pEC50: Dr-sstr2b, Fig. S15D
# From the text: as §1, §2
# perfused rat pancreas = assay: Rat pancreas perfusion, glucagon output; set-up: species or system rat (Wistar)
# Protocol: Non-fasted rats were anesthetized by a subcutaneous injection of a balanced mix of hypnorm and midazolam (0.3 mL/100 g body weight). Rats were placed on a heated operating table (37 °C) and the abdomen were opened. Blood vessels were tied off before removing the large and small intestines, the stomach, and the spleen. Then, the kidneys were ligated. […] The perfusion buffer was a modified Krebs-Ringer bicarbonate buffer with 5% (w/v) dextran T-70 (Pharmacosmos, Holbaek, Denmark), 0.1% (w/v) BSA (fraction V), 3.5 mM glucose and 3 mM vamin (Fresenius Kabi, Copenhagen, Denmark), pH adjusted to 7.4. […] Once perfusion of the pancreas was established, a catheter was inserted in the vena portae to collect the venous effluent and the rat was sacrificed by perforation of the diaphragm. After a 30-minute equilibration period, samples were collected every minute for the duration of the protocol. […] 10 mM L-Arginine was used as a positive control. Collected samples were immediately transferred on ice and stored at −20 °C until hormone analysis. Glucagon, insulin, and somatostatin concentrations in venous effluents were quantified by use of validated in-house radioimmunoassays (RIA) as previously described[36] (see below). Statistical analysis were performed where appropriate using one-way analysis of variance (ANOVA) with Dunnett’s post-test. Statistical significance was taken as p < 0.05.
# Glucagon concentration in perfusion samples were measured by a validated in-house RIAs using the 4305 antibody, which reacts with the C-terminal epitope of glucagon[36] and no other cleavage products of pro-glucagon. Insulin concentrations were measured with the 2006 antibody, which measures all isoforms of rat insulin. […] Assay sensitivity was <1 pmol/L ( < 5 pmol/L for insulin detection), allowing reliable measurements of increments of at least 25 fmol/min.
# Data analysis were performed in GraphPad Prism (v.9.4.1). Statistical analysis were performed using two-way repeated measure analysis of variance (ANOVA) with Šidák test for isolated islets glucagon secretion and one-way repeated measure ANOVA with Dunnett's test for rat pancreas perfusion experiments. Statistical significance was taken as p < 0.05.
# [1] = tested on: Dr-sstr2a with the ECL2 region of the hSSTR2; assay: Activation of hybrid receptor (ECL2 of hSSTR2 inserted into Dr-sstr2a); format: cell-based; settings: preliminary results, peer review file
# From the text: To further address this, we have begun to perform mutagenesis studies on the Dr-sstr2a.
# [2] = tested on: human SSTR2 (Gi1-3, GoA, GoB); assay: G protein activation (BRET dissociation) assay, panel of Gi/o proteins at hSSTR2; format: cell-based; settings: hSSTR2, HEK293T cells
# Protocol: HEK293T cells were seeded onto 6-well plates at a density of 750,000 cells/well. […] 16 to 24 hours post-transfection, HEK293T cells were seeded onto white 96 well plate (PerkinElmer) coated with poly-L-lysine (PLL) at a density of 40,000 cells/well and were allowed to grow overnight. On the day of assay, cells were washed once with phosphate-based saline (PBS) and 80 µL of assay buffer which composed of PBS with 0.5 mM MgCl2 and 0.1% glucose, pH 7.4, were added onto each well. 10 µL of Nluc luciferase substrate furimazine (Promega) were added onto each well and incubated for 3 minutes.
# The net BRET ratio was determined by subtracting the BRET ratio of drugs with the BRET ratio of vehicle control. Net BRET ratio over time was then plotted using GraphPad Prism (v.9.4.1), and the area-under-curve of net BRET ratio over time course for each ligand concentration tested were then determined and plotted against log(concentration) of drugs tested. […] Concentration response curves were fitted with a 4-parameter logistic Eq. (1) using GraphPad Prism (v.9.4.1):1 Y=Emin+(Emax−Emin)/1+10^logEC50−X×Hillslope
# human SSTR2 = human SSTR2 (Homo sapiens, UniProt P30874); assay: Quantification of ligand bias (operational model), G proteins at hSSTR2; format: cell-based; set-up: Bryan Roth (Addgene) Addgene kit # 1000000068; host or cells: HTLA cells; settings: for ∆log(tau/Ka): LogR(ligand) - LogR(SST-14); for LogR ± S.E.M.: log(τ/KA); for RE: relative efficacy; for ∆LogR ± S.E.M.: relative to SS-14; for G protein bias in words: ∆Log(τ/KA), SS-14 as reference
# Chain of human SSTR2 (P30874 whole entry): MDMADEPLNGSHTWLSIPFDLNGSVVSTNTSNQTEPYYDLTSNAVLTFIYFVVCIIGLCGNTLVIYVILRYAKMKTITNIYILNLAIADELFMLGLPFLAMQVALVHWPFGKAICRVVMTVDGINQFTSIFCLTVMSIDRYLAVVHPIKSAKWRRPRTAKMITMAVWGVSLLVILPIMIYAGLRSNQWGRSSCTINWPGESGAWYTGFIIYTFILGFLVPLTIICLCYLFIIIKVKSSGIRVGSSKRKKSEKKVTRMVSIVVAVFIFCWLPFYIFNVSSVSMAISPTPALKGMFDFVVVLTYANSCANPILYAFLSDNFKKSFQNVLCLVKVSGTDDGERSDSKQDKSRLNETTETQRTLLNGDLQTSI
# From the text: Ligand bias were quantified using the method described in[35]. […] The operational model (2)[35] was used to determine the transduction ratios (τ/KA).2 E=Emin+(Emax−Emin)/1+(1+A/10^logKA)/10^logRA^n where E is the effect of the ligand, [A] is the concentration of test ligands, Emax is the maximal response of the system, Emin is the minimum response of the system, logKA is the logarithm of the equilibrium dissociation constant, n is the slope of the transducer function, log R is the logarithm of the transduction ratio (τ/KA).
# Each experiment was analyzed using the operational model which all individual experiments were fitted with a global shared slope. The LogR (equivalent to log [τ] /KA) values were estimated by GraphPad Prism (v.9.4.1) and were used to calculate the relative efficacy (RE) using Eqs.
smiles,measurement,setting,value
CC(C)C[C@H](N)C(=O)N[C@@H](Cc1ccccc1)C(=O)N[C@H]1CSSC[C@@H](C(=O)N[C@@H](Cc2c[nH]c3ccccc23)C(=O)O)NC(=O)[C@H](CO)NC(=O)[C@H](CCCCN)NC(=O)[C@@H](Cc2c[nH]c3ccccc23)NC(=O)[C@H](Cc2ccccc2)NC1=O [pG1] (H-LFCF[dW]KSCW-OH; disulfide 3-8),activation of Dr-sstr2a in words,Dr-sstr2a,very low potency; also recorded: activates the zebrafish Dr-sstr2b (n = 3) but not Dr-sstr2a
same,pEC50,Dr-sstr2b; replicate 1,7.529
same,pEC50,Dr-sstr2b; replicate 2,7.491
same,pEC50,Dr-sstr2b; replicate 3,7.611
same,pEC50,Dr-sstr2b; replicate 4,7.82
same,activation of Dr-sstr2b in words,"Dr-sstr2b; PRESTO-Tango, HTLA cells",activates the zebrafish Dr-sstr2b (n = 3) but not Dr-sstr2a
same,Hill Slope,Dr-sstr2b; Table S4,0.90 ± 0.13
same,Span ± S.E.M.,Dr-sstr2b; Table S4,82.46 ± 4.04
same,EC50,"Dr-sstr2b; Table S4, HTLA cells",25.3 nM
same,Emax ± S.E.M.,"Dr-sstr2b; Table S4, relative to SS-14",83.12 ± 3.13
same,suppression of glucagon secretion,"perfused rat pancreas; 0.1 nM, within 5 minute of application, […] glucose, n = 10 rats",24%
same,further suppression of glucagon secretion,"perfused rat pancreas; 1 nM, subsequent application, […] glucose, n = 10 rats",45%
same,glucagon level in words,"perfused rat pancreas; 10 nM, […] glucose",drastically reduced the glucagon level close to null
same,recovery of glucagon level after washout,"perfused rat pancreas; after 0.1 nM, 15-minute washout, baseline 754.9 fmol/min",failed to return to the average baseline level
same,activation of hybrid receptor in words,[1],activation of this hybrid receptor
same,Gi/o protein dissociation in words,[2],weaker potencies at dissociating all Gi/o proteins compared to SS-14
same,Gi/o protein dissociation in words,[2]; listed as Consomatin pG1,weaker potencies in dissociating different Gαi/o protein compared to SS-14 and octreotide
same,∆log(tau/Ka),human SSTR2; Gi1 (Gαi1),-1.977
same,"LogR, Mean","human SSTR2; Gi1, N: SS-14 4, Octreotide 2, pG1 4",7.421
same,LogR,"human SSTR2; Gi1, replicate 1 (row r6)",7.197
same,LogR,"human SSTR2; Gi1, replicate 2 (row r7)",7.651
same,LogR,"human SSTR2; Gi1, replicate 3 (row r8)",7.8528
same,LogR,"human SSTR2; Gi1, replicate 4 (row r9)",6.983
same,∆log(tau/Ka),human SSTR2; Gi2 (Gαi2),-1.482
same,"LogR, Mean","human SSTR2; Gi2, N: SS-14 5, Octreotide 3, pG1 5",7.871
same,LogR,"human SSTR2; Gi2, replicate 1 (row r6)",7.692
same,LogR,"human SSTR2; Gi2, replicate 2 (row r7)",7.679
same,LogR,"human SSTR2; Gi2, replicate 3 (row r8)",7.686
same,LogR,"human SSTR2; Gi2, replicate 4 (row r9)",8.256
same,LogR,"human SSTR2; Gi2, replicate 5 (row r10)",8.0434
same,∆log(tau/Ka),human SSTR2; Gi3 (Gαi3),-1.406
same,"LogR, Mean","human SSTR2; Gi3, N: SS-14 3, Octreotide 2, pG1 3",8.305
same,LogR,"human SSTR2; Gi3, replicate 1 (row r6)",7.832
same,LogR,"human SSTR2; Gi3, replicate 2 (row r7)",8.615
same,LogR,"human SSTR2; Gi3, replicate 3 (row r8)",8.468
same,∆log(tau/Ka),human SSTR2; GoA (GαoA),-1.083
same,"LogR, Mean","human SSTR2; GoA, N: SS-14 4, Octreotide 2, pG1 2",8.753
same,LogR,"human SSTR2; GoA, replicate 1 (row r6)",8.653
same,LogR,"human SSTR2; GoA, replicate 4 (row r9)",8.853
same,∆log(tau/Ka),human SSTR2; GoB (GαoB),-1.118
same,"LogR, Mean","human SSTR2; GoB, N: SS-14 2, Octreotide 2, pG1 3",8.505
same,LogR,"human SSTR2; GoB, replicate 1 (row r6)",8.36
same,LogR,"human SSTR2; GoB, replicate 2 (row r7)",8.764
same,LogR,"human SSTR2; GoB, replicate 3 (row r8)",8.39
same,LogR ± S.E.M.,human SSTR2; Gαi1,7.42 ± 0.20
same,RE,"human SSTR2; Gαi1, 10^∆log(τ/KA)",0.01
same,∆LogR ± S.E.M.,human SSTR2; Gαi1,-1.98 ± 0.27
same,LogR ± S.E.M.,human SSTR2; Gαi2,7.87 ± 0.12
same,RE,human SSTR2; Gαi2,0.033
same,∆LogR ± S.E.M.,human SSTR2; Gαi2,-1.48 ± 0.31
same,LogR ± S.E.M.,human SSTR2; Gαi3,8.30 ± 0.24
same,RE,human SSTR2; Gαi3,0.039
same,∆LogR ± S.E.M.,human SSTR2; Gαi3,-1.41 ± 0.26
same,LogR ± S.E.M.,human SSTR2; GαoA,8.75 ± 0.10
same,RE,human SSTR2; GαoA,0.082
same,∆LogR ± S.E.M.,human SSTR2; GαoA,-1.08 ± 0.13
same,LogR ± S.E.M.,human SSTR2; GαoB,8.50 ± 0.13
same,RE,human SSTR2; GαoB,0.076
same,∆LogR ± S.E.M.,human SSTR2; GαoB,-1.12 ± 0.14
same,G protein bias in words,human SSTR2,does not bias towards Gi1 protein but preferentially couples to GoA and GoB protein
same,G protein bias in words,human SSTR2; listed as Consomatin pG1,displays G protein bias towards Go subunits
